These results are taken from patent US8227601B2, “Diaryl-purines, azapurines and -deazapurines as non-nucleoside reverse transcriptase inhibitor for treatment of HIV” (priority 2005, dated 2012).

As a reminder, the EC50 is the concentration that produces a half-maximal response.

The first assay concerns HIV-1 Y188L. Nature of the assay: microbe, parasite or virus in culture. It counts as cell-based, human immunodeficiency virus type 1 (HIV-1). Conditions: Human immunodeficiency virus 1, read-out: EC50 Y188L (nM).
For the compound `Cc1cc(C)c(Oc2nc(Nc3ccc(C#N)cc3)nc3[nH]ccc23)c(C)c1` [Cpd 1], the EC50 lay in the range of 10 to 100 nM.

For `Cc1cc(C)c(Sc2nc(Nc3ccc(C#N)cc3)nc3[nH]ccc23)c(C)c1` [Cpd 2], the EC50 was 10 to 100 nM.

For `Cc1cc(C#N)cc(C)c1Oc1nc(Nc2ccc(C#N)cc2)nc2[nH]ccc12` [Cpd 3], the concentration giving a half-maximal response (EC50) is less than 10 nM.

Consider `Cc1cc(C)c(Nc2nc(Nc3ccc(C#N)cc3)nc3[nH]ccc23)c(C)c1` [Cpd 4], for which the concentration for a half-maximal effect (EC50) fell in the range of 10 to 100 nM.

Regarding `Cc1cc(C)c(Oc2nc(Nc3ccc(C#N)cc3)nc3[nH]cnc23)c(C)c1` [Cpd 5], the EC50 is less than 10 nM.

Regarding `Cc1cc(Br)cc(C)c1Oc1nc(Nc2ccc(C#N)cc2)nc2[nH]ccc12` [Cpd 6], the EC50 was in the range of 10 to 100 nM.

Regarding `Cc1cc(C)c(Oc2nc(Nc3ccc(C#N)cc3)nc3[nH]ncc23)c(C)c1` [Cpd 7], the EC50 lay in the range of 10 to 100 nM.

Regarding `Cc1cc(Br)cc(Cl)c1Oc1nc(Nc2ccc(C#N)cc2)nc2c1ccn2Cc1ccccc1` [Cpd 8], the EC50 is greater than 100 nM.

Consider `Cc1ccc(Oc2nc(Nc3ccc(C#N)cc3)nc3[nH]ccc23)c(C)c1` [Cpd 9], for which the concentration giving a half-maximal response (EC50) was greater than 100 nM.

As for `Cc1cc(Br)cc(Cl)c1Oc1nc(Nc2ccc(C#N)cc2)nc2[nH]ccc12` [Cpd 10], the half-maximal effective concentration (EC50) lay in the range of 10 to 100 nM.

For `Cc1cc(Cl)cc(C)c1Oc1nc(Nc2ccc(C#N)cc2)nc2[nH]ccc12` [Cpd 11], the EC50 is less than 10 nM.

Regarding `Cc1cc(C)c(Oc2nc(Nc3ccc(S(N)(=O)=O)cc3)nc3[nH]cnc23)c(C)c1` [Cpd 12], the EC50 was greater than 100 nM.

As for `Cc1cc(C#N)cc(C)c1Oc1nc(Nc2ccc(C#N)cc2)nc2c1ccn2C` [Cpd 13], the EC50 was less than 10 nM.

Turning to `COC(=O)c1ccc(Nc2nc(Oc3c(C)cc(C)cc3C)c3nc[nH]c3n2)cc1` [Cpd 14], the concentration for a half-maximal effect (EC50) was greater than 100 nM.

As for `Cc1cc(C)c(Oc2nc(Nc3ccc(C(N)=O)cc3)nc3[nH]cnc23)c(C)c1` [Cpd 15], the EC50 was greater than 100 nM.

As for `Cc1cc(C)c(Oc2nc(Nc3ccc(C(=O)O)cc3)nc3[nH]cnc23)c(C)c1` [Cpd 16], the EC50 is greater than 100 nM.

As for `Cc1cc(C#N)cc(C)c1Oc1nc(Nc2ccc(C#N)cc2)nc2[nH]ncc12` [Cpd 17], the EC50 is less than 10 nM.

Regarding `Cc1cc(C)c(Oc2nc(Nc3ccc(C#N)cc3)nc3[nH]cc(Cl)c23)c(C)c1` [Cpd 18], the concentration giving a half-maximal response (EC50) was greater than 100 nM.

Turning to `Cc1cc(C2CC2)cc(C)c1Oc1nc(Nc2ccc(C#N)cc2)nc2[nH]cnc12` [Cpd 19], the EC50 is less than 10 nM.

Another assay relates to HIV-1 L1001-K103N. Description: microbe, parasite or virus in culture. It is filed as cell-based, human immunodeficiency virus type 1 (HIV-1). Conditions: Human immunodeficiency virus 1, read-out: EC50 L1001-K103N (nM), L1001-K103N mutant.
As for `Cc1cc(C)c(Oc2nc(Nc3ccc(C#N)cc3)nc3[nH]ccc23)c(C)c1` [Cpd 1], the EC50 was in the range of 10 to 100 nM.

Take `Cc1cc(C)c(Sc2nc(Nc3ccc(C#N)cc3)nc3[nH]ccc23)c(C)c1` [Cpd 2]: the EC50 was greater than 100 nM.

Turning to `Cc1cc(C#N)cc(C)c1Oc1nc(Nc2ccc(C#N)cc2)nc2[nH]ccc12` [Cpd 3], the EC50 was less than 10 nM.

Turning to `Cc1cc(C)c(Nc2nc(Nc3ccc(C#N)cc3)nc3[nH]ccc23)c(C)c1` [Cpd 4], the EC50 was 10 to 100 nM.

As to `Cc1cc(C)c(Oc2nc(Nc3ccc(C#N)cc3)nc3[nH]cnc23)c(C)c1` [Cpd 5], the EC50 was less than 10 nM.

Regarding `Cc1cc(Br)cc(C)c1Oc1nc(Nc2ccc(C#N)cc2)nc2[nH]ccc12` [Cpd 6], the EC50 fell in the range of 10 to 100 nM.

Regarding `Cc1cc(C)c(Oc2nc(Nc3ccc(C#N)cc3)nc3[nH]ncc23)c(C)c1` [Cpd 7], the EC50 is 10 to 100 nM.

As to `Cc1cc(Br)cc(Cl)c1Oc1nc(Nc2ccc(C#N)cc2)nc2c1ccn2Cc1ccccc1` [Cpd 8], the concentration for a half-maximal effect (EC50) was greater than 100 nM.

`Cc1ccc(Oc2nc(Nc3ccc(C#N)cc3)nc3[nH]ccc23)c(C)c1` [Cpd 9]: the EC50 was greater than 100 nM.

For `Cc1cc(Br)cc(Cl)c1Oc1nc(Nc2ccc(C#N)cc2)nc2[nH]ccc12` [Cpd 10], the EC50 is 10 to 100 nM.

For the compound `Cc1cc(Cl)cc(C)c1Oc1nc(Nc2ccc(C#N)cc2)nc2[nH]ccc12` [Cpd 11], the EC50 lay within 10 to 100 nM.

As for `Cc1cc(C)c(Oc2nc(Nc3ccc(S(N)(=O)=O)cc3)nc3[nH]cnc23)c(C)c1` [Cpd 12], the EC50 is greater than 100 nM.

Regarding `Cc1cc(C#N)cc(C)c1Oc1nc(Nc2ccc(C#N)cc2)nc2c1ccn2C` [Cpd 13], the EC50 was less than 10 nM.

For the compound `COC(=O)c1ccc(Nc2nc(Oc3c(C)cc(C)cc3C)c3nc[nH]c3n2)cc1` [Cpd 14], the EC50 was greater than 100 nM.

`Cc1cc(C)c(Oc2nc(Nc3ccc(C(N)=O)cc3)nc3[nH]cnc23)c(C)c1` [Cpd 15]: the EC50 was greater than 100 nM.

`Cc1cc(C)c(Oc2nc(Nc3ccc(C(=O)O)cc3)nc3[nH]cnc23)c(C)c1` [Cpd 16]: the half-maximal effective concentration (EC50) is greater than 100 nM.

`Cc1cc(C#N)cc(C)c1Oc1nc(Nc2ccc(C#N)cc2)nc2[nH]ncc12` [Cpd 17]: the concentration giving a half-maximal response (EC50) was 10 to 100 nM.

Regarding `Cc1cc(C)c(Oc2nc(Nc3ccc(C#N)cc3)nc3[nH]cc(Cl)c23)c(C)c1` [Cpd 18], the EC50 was greater than 100 nM.

`Cc1cc(C2CC2)cc(C)c1Oc1nc(Nc2ccc(C#N)cc2)nc2[nH]cnc12` [Cpd 19]: the EC50 was in the range of 10 to 100 nM.

For a further assay, the system named is wild type HIV-1. Nature of the assay: microbe, parasite or virus in culture. Conditions: Human immunodeficiency virus 1, Hela-JC53, read-out: EC50 WT (nM). It is filed as cell-based, human immunodeficiency virus type 1 (HIV-1).
Consider `Cc1cc(C)c(Oc2nc(Nc3ccc(C#N)cc3)nc3[nH]ccc23)c(C)c1` [Cpd 1], for which the EC50 is less than 10 nM.

On to `Cc1cc(C)c(Sc2nc(Nc3ccc(C#N)cc3)nc3[nH]ccc23)c(C)c1` [Cpd 2], for which the concentration giving a half-maximal response (EC50) was less than 10 nM.

`Cc1cc(C#N)cc(C)c1Oc1nc(Nc2ccc(C#N)cc2)nc2[nH]ccc12` [Cpd 3]: the concentration for a half-maximal effect (EC50) is less than 10 nM.

For the compound `Cc1cc(C)c(Nc2nc(Nc3ccc(C#N)cc3)nc3[nH]ccc23)c(C)c1` [Cpd 4], the EC50 is less than 10 nM.

Take `Cc1cc(C)c(Oc2nc(Nc3ccc(C#N)cc3)nc3[nH]cnc23)c(C)c1` [Cpd 5]: the EC50 was less than 10 nM.

Take `Cc1cc(Br)cc(C)c1Oc1nc(Nc2ccc(C#N)cc2)nc2[nH]ccc12` [Cpd 6]: the EC50 is less than 10 nM.

For `Cc1cc(C)c(Oc2nc(Nc3ccc(C#N)cc3)nc3[nH]ncc23)c(C)c1` [Cpd 7], the concentration giving a half-maximal response (EC50) was less than 10 nM.

With `Cc1cc(Br)cc(Cl)c1Oc1nc(Nc2ccc(C#N)cc2)nc2c1ccn2Cc1ccccc1` [Cpd 8], the EC50 fell in the range of 10 to 100 nM.

For `Cc1ccc(Oc2nc(Nc3ccc(C#N)cc3)nc3[nH]ccc23)c(C)c1` [Cpd 9], the half-maximal effective concentration (EC50) is less than 10 nM.

Consider `Cc1cc(Br)cc(Cl)c1Oc1nc(Nc2ccc(C#N)cc2)nc2[nH]ccc12` [Cpd 10], for which the half-maximal effective concentration (EC50) was less than 10 nM.

In the case of `Cc1cc(Cl)cc(C)c1Oc1nc(Nc2ccc(C#N)cc2)nc2[nH]ccc12` [Cpd 11], the EC50 is less than 10 nM.

For the compound `Cc1cc(C)c(Oc2nc(Nc3ccc(S(N)(=O)=O)cc3)nc3[nH]cnc23)c(C)c1` [Cpd 12], the half-maximal effective concentration (EC50) was in the range of 10 to 100 nM.

As for `Cc1cc(C#N)cc(C)c1Oc1nc(Nc2ccc(C#N)cc2)nc2c1ccn2C` [Cpd 13], the EC50 was less than 10 nM.

For the compound `COC(=O)c1ccc(Nc2nc(Oc3c(C)cc(C)cc3C)c3nc[nH]c3n2)cc1` [Cpd 14], the concentration giving a half-maximal response (EC50) was less than 10 nM.

As to `Cc1cc(C)c(Oc2nc(Nc3ccc(C(N)=O)cc3)nc3[nH]cnc23)c(C)c1` [Cpd 15], the EC50 is 10 to 100 nM.

Regarding `Cc1cc(C)c(Oc2nc(Nc3ccc(C(=O)O)cc3)nc3[nH]cnc23)c(C)c1` [Cpd 16], the EC50 is greater than 100 nM.

With `Cc1cc(C#N)cc(C)c1Oc1nc(Nc2ccc(C#N)cc2)nc2[nH]ncc12` [Cpd 17], the EC50 is less than 10 nM.

As to `Cc1cc(C)c(Oc2nc(Nc3ccc(C#N)cc3)nc3[nH]cc(Cl)c23)c(C)c1` [Cpd 18], the EC50 lay within 10 to 100 nM.

Consider `Cc1cc(C2CC2)cc(C)c1Oc1nc(Nc2ccc(C#N)cc2)nc2[nH]cnc12` [Cpd 19], for which the concentration giving a half-maximal response (EC50) was less than 10 nM.

For the next assay, the system named is HIV-1 Y181C. Nature of the assay: microbe, parasite or virus in culture. It counts as cell-based, human immunodeficiency virus type 1 (HIV-1). Particulars: Human immunodeficiency virus 1, read-out: EC50 Y181C (nM), Y181C mutant.
For `Cc1cc(C)c(Oc2nc(Nc3ccc(C#N)cc3)nc3[nH]ccc23)c(C)c1` [Cpd 1], the 50% effective concentration (EC50) fell in the range of 10 to 100 nM.

As to `Cc1cc(C)c(Sc2nc(Nc3ccc(C#N)cc3)nc3[nH]ccc23)c(C)c1` [Cpd 2], the EC50 fell in the range of 10 to 100 nM.

Regarding `Cc1cc(C#N)cc(C)c1Oc1nc(Nc2ccc(C#N)cc2)nc2[nH]ccc12` [Cpd 3], the EC50 was less than 10 nM.

Turning to `Cc1cc(C)c(Nc2nc(Nc3ccc(C#N)cc3)nc3[nH]ccc23)c(C)c1` [Cpd 4], the 50% effective concentration (EC50) was in the range of 10 to 100 nM.

As to `Cc1cc(C)c(Oc2nc(Nc3ccc(C#N)cc3)nc3[nH]cnc23)c(C)c1` [Cpd 5], the EC50 is less than 10 nM.

Turning to `Cc1cc(Br)cc(C)c1Oc1nc(Nc2ccc(C#N)cc2)nc2[nH]ccc12` [Cpd 6], the EC50 was in the range of 10 to 100 nM.

Turning to `Cc1cc(C)c(Oc2nc(Nc3ccc(C#N)cc3)nc3[nH]ncc23)c(C)c1` [Cpd 7], the concentration giving a half-maximal response (EC50) was less than 10 nM.

Take `Cc1cc(Br)cc(Cl)c1Oc1nc(Nc2ccc(C#N)cc2)nc2c1ccn2Cc1ccccc1` [Cpd 8]: the EC50 is greater than 100 nM.

As for `Cc1ccc(Oc2nc(Nc3ccc(C#N)cc3)nc3[nH]ccc23)c(C)c1` [Cpd 9], the EC50 was greater than 100 nM.

With `Cc1cc(Br)cc(Cl)c1Oc1nc(Nc2ccc(C#N)cc2)nc2[nH]ccc12` [Cpd 10], the EC50 is 10 to 100 nM.

In the case of `Cc1cc(Cl)cc(C)c1Oc1nc(Nc2ccc(C#N)cc2)nc2[nH]ccc12` [Cpd 11], the EC50 fell in the range of 10 to 100 nM.

As to `Cc1cc(C)c(Oc2nc(Nc3ccc(S(N)(=O)=O)cc3)nc3[nH]cnc23)c(C)c1` [Cpd 12], the concentration giving a half-maximal response (EC50) was greater than 100 nM.

`Cc1cc(C#N)cc(C)c1Oc1nc(Nc2ccc(C#N)cc2)nc2c1ccn2C` [Cpd 13]: the half-maximal effective concentration (EC50) was less than 10 nM.

In the case of `COC(=O)c1ccc(Nc2nc(Oc3c(C)cc(C)cc3C)c3nc[nH]c3n2)cc1` [Cpd 14], the EC50 is greater than 100 nM.

Regarding `Cc1cc(C)c(Oc2nc(Nc3ccc(C(N)=O)cc3)nc3[nH]cnc23)c(C)c1` [Cpd 15], the concentration for a half-maximal effect (EC50) was greater than 100 nM.

As to `Cc1cc(C)c(Oc2nc(Nc3ccc(C(=O)O)cc3)nc3[nH]cnc23)c(C)c1` [Cpd 16], the 50% effective concentration (EC50) is greater than 100 nM.

As for `Cc1cc(C#N)cc(C)c1Oc1nc(Nc2ccc(C#N)cc2)nc2[nH]ncc12` [Cpd 17], the 50% effective concentration (EC50) fell in the range of 10 to 100 nM.

For the compound `Cc1cc(C)c(Oc2nc(Nc3ccc(C#N)cc3)nc3[nH]cc(Cl)c23)c(C)c1` [Cpd 18], the EC50 is greater than 100 nM.

Regarding `Cc1cc(C2CC2)cc(C)c1Oc1nc(Nc2ccc(C#N)cc2)nc2[nH]cnc12` [Cpd 19], the EC50 is less than 10 nM.
